Laboratory results from ChEMBL document CHEMBL1201862, “PubChem BioAssay data set” (2004).
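Cells were grown in 96-well plates and exposed to each compound for 48 hours at five concentrations; endpoints were interpolated linearly between bracketing concentrations, or set to the highest concentration if not reached. At the GI50, growth is halved.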 Active and inactive are the calls of the source. Rule as the data show it: active = GI50 up to about 1.1 µM and inactive = higher.

Experiments:
Experiment in all cases: inhibition of tumour cell growth, NCI panel, 48 h
[1] = system: SF-268
[2] = system: IGROV-1
[3] = system: RPMI-8226
[4] = system: SNB-19
[5] = system: SK-MEL-2
[6] = system: LOX IMVI
[7] = system: UACC-62
[8] = system: SF-539
[9] = system: KM12
[10] = system: NCI-H226
[11] = system: HCC 2998
[12] = system: HOP-62
[13] = system: M14
[14] = system: DLD-1
[15] = system: LXFL 529
[16] = system: A498
[17] = system: U-251
[18] = system: MCF7
[19] = system: T47D
[20] = system: Hs-578T

Row | SMILES | GI50 [1] | GI50 [2] | GI50 [3] | GI50 [4] | GI50 [5] | GI50 [6] | GI50 [7] | GI50 [8] | GI50 [9] | GI50 [10] | GI50 [11] | GI50 [12] | GI50 [13] | GI50 [14] | GI50 [15] | GI50 [16] | GI50 [17] | GI50 [18] | GI50 [19] | GI50 [20]
1 | C/C(CCn1[nH]c(=O)ccc1=O)=N\N=C(N)N | > 100 µM (inactive) | > 100 µM (inactive) | > 100 µM (inactive) | > 100 µM (inactive) | > 100 µM (inactive) | > 100 µM (inactive) | > 100 µM (inactive) | > 100 µM (inactive) | > 100 µM (inactive) | > 100 µM (inactive) | > 100 µM (inactive) | > 100 µM (inactive) | > 100 µM (inactive) | > 100 µM (inactive) | > 100 µM (inactive) | > 100 µM (inactive) | – | – | – | –
2 | COc1cc(C=O)c(-c2c(C=O)ccc3c2OCO3)c(OC)c1OC | 89.3 µM (inactive) | > 100 µM (inactive) | 56.5 µM (inactive) | 49.8 µM (inactive) | > 100 µM (inactive) | 54.6 µM (inactive) | 62.5 µM (inactive) | > 100 µM (inactive) | 78.3 µM (inactive) | > 100 µM (inactive) | > 100 µM (inactive) | > 100 µM (inactive) | 74.1 µM (inactive) | > 100 µM (inactive) | > 100 µM (inactive) | > 100 µM (inactive) | 70.1 µM (inactive) | – | – | –
3 | Cc1cc(C)cc(Sc2c([N+](=O)[O-])ncn2C)c1 | 14.9 µM (inactive) | 20.8 µM (inactive) | 9.98 µM (inactive) | 25.7 µM (inactive) | 10.6 µM (inactive) | 11.5 µM (inactive) | 15.5 µM (inactive) | 6.03 µM (inactive) | 18.9 µM (inactive) | 6.03 µM (inactive) | 25 µM (inactive) | > 100 µM (inactive) | 14 µM (inactive) | 11.9 µM (inactive) | 7.83 µM (inactive) | 20.9 µM (inactive) | 14.6 µM (inactive) | – | – | –
4 | O=NN(CCCl)C(=O)NC1CCCCC1 [LOMUSTINE] | 24.5 µM (inactive) | 47 µM (inactive) | 16.9 µM (inactive) | 52.5 µM (inactive) | 74.3 µM (inactive) | 9.91 µM (inactive) | 12.7 µM (inactive) | 24 µM (inactive) | 71.4 µM (inactive) | 64.4 µM (inactive) | 56 µM (inactive) | 61.7 µM (inactive) | 41 µM (inactive) | 30.2 µM (inactive) | 47.4 µM (inactive) | 74.3 µM (inactive) | 31.6 µM (inactive) | 35.5 µM (inactive) | 31.6 µM (inactive) | 37.9 µM (inactive)
5 | NC1=C(C(=O)O)C(=O)C(Nc2c(O)cccc2C(=O)O)=CC1=O | 1 µM (active) | > 100 µM (inactive) | > 100 µM (inactive) | > 100 µM (inactive) | 59.3 µM (inactive) | > 100 µM (inactive) | 60 µM (inactive) | > 100 µM (inactive) | > 100 µM (inactive) | > 100 µM (inactive) | 31.6 µM (inactive) | > 100 µM (inactive) | 45.4 µM (inactive) | 31.6 µM (inactive) | > 100 µM (inactive) | > 100 µM (inactive) | > 100 µM (inactive) | – | – | –
6 | CCOC(=O)C(/N=N\c1ccc(S(N)(=O)=O)cc1)C(C)=O (centres undefined) | > 100 µM (inactive) | > 100 µM (inactive) | > 100 µM (inactive) | > 100 µM (inactive) | > 100 µM (inactive) | > 100 µM (inactive) | > 100 µM (inactive) | > 100 µM (inactive) | > 100 µM (inactive) | > 100 µM (inactive) | 99.5 µM (inactive) | > 100 µM (inactive) | > 100 µM (inactive) | > 100 µM (inactive) | > 100 µM (inactive) | > 100 µM (inactive) | > 100 µM (inactive) | – | – | –
